Source: patent publication US20230167071A1, “COMPOUNDS WITH ANTIMALARIAL ACTIVITY” (UNIVERSITY OF PUERTO RICO, priority 2019, published 2023)

Legend:
[1] = test system: P. falciparum multidrug-resistant Dd2 clone B2; assay: In vitro susceptibility of P. falciparum, flow cytometry after 72 hours; type: cell-based, Plasmodium falciparum; conditions: P. falciparum Dd2 clone B2, 72 hours; read-out: EC50 (parasite growth)
Description: After 72 hours, parasite growth was assessed using flow cytometry on an Accuri C6 cytometer with parasites stained with SYBR green I and MitoTracker Deep Red. Compound CB-27 was tested in six independent experiments with technical replicates. The percentage of parasite growth was curve fitted against log-transformed drug concentrations and the EC50 was calculated using GraphPad Prism 6 software.

[2] = test system: PbGST; assay: GST inhibition (CDNB/GSH) in crude P. berghei protein extract; type: biochemical, Plasmodium berghei; conditions: crude P. berghei protein extract, 0, 1, 10, and 50 μM
Description: Materials and methods. […] Parasite extracts were prepared and the pellets containing proteins were resuspended in buffer (3.5 mM MgCl2, 110 mM KCl, 40 mM NaCl, 20 mM HEPES, 6 mM EDTA, pH 7.4) with protease inhibitors (0.01 mg of leupeptin A, 0.001 mg of pepstatin A, 0.35 mg of PMSF). The parasite pellets were lysed by three freeze/thaw cycles (liquid nitrogen and 37° C. water bath) and protein content was determined using Bio-Rad DC Protein Assay. […] . The reaction was initiated by the addition of 1 mM GSH and the formation of S-(2,4-dinitrophenyl)glutathione was monitored spectrophotometrically at 340 nm (ε340 nm=0.0096 μM^−1cm^−1) using the SpectraMax M3 Microplate Reader (Molecular Devices).

[3] = target: T1, human placenta GST (Homo sapiens, UniProt P09211); assay: GST inhibition, human placenta GST; type: biochemical; conditions: human placenta GST, 0, 1, 10, and 50 μM
T1 construct: from tissue; host or cells: human placenta

[4] = test system: mouse erythrocytes; assay: Red blood cell lysis assay; type: cell-based; conditions: mouse erythrocytes 1% hematocrit, 24 hours, 0.2-100× fold EC50
Text: Materials and methods. Random-bred Swiss albino CD-1 female mice (Charles River Laboratories, Wilmington, Mass., USA) from 6-8 weeks old were used for the study. All mice procedures were approved by the Institutional Animal Care and Use Committee under the protocol number 2480108 at the AAALAC accredited University of Puerto Rico-Medical Sciences Campus Animal Resources Center. The mice work was done in strict accordance with the “Guide for the Care and Use of Laboratory Animals” (National-Research-Council, Current Edition) and regulations of the PHS Policy on Humane Care and Use of Laboratory Animals. Mice were acclimated for 1 week before initiation of experiments.
Compounds were analyzed at 10 serial dilutions using fresh mouse erythrocytes at 1% hematocrit in Dulbecco's PBS (Gibco®) in V-bottom microplates (Corning® 96 well TC-treated microplate). The plates were incubated for 24 hours at 37° C. followed by centrifugation at 2,000 rpm for 5 min, and 50 μl of supernatant was transferred to a fresh flat-bottom microplate (BD Falcon®). The amount of hemoglobin release in the supernatant was determined using the QuantiChrom™ Hemoglobin Assay Kit (DIHB-250; BioAssay Systems) by measuring the absorbance at 400 nm following the manufacturer's instructions. Saponin at 100 μg/ml was used as a positive control for 100% cell lysis, blood (1% hematocrit) with Dulbecco's Phosphate-Buffered Saline (DPBS) as a negative control for no cell lysis, and DPBS as a blank. Compounds were tested in three independent experiments in triplicate each.

T1 sequence (P09211 2-210 limits assumed): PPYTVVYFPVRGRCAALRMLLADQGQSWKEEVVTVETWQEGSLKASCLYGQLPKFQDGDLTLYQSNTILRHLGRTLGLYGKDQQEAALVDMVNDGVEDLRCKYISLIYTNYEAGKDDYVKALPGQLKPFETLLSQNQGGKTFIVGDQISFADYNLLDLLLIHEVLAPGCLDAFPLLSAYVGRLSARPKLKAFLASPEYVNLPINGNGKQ

## O=C(NN=Cc1c(O)ccc2ccccc12)c1nc(-c2ccccc2)cc(-c2ccccc2)n1 [CB-27]
[1]
  EC50: 958 nM
[2]
  inhibition of PbGST activity: concentration-dependent inhibition
[3]
  inhibition of human GST activity: does not inhibit
[4]
  hemolysis (lytic activity): did not hemolyze erythrocytes

## COc1cccc(/C=N/NC(=O)c2nc(-c3ccccc3)cc(-c3ccccc3)n2)c1O [CB-41]
[4]
  hemolysis (lytic activity): did not hemolyze erythrocytes

## O=C(N/N=C/c1cc(Br)ccc1O)/C(=C/C=C/c1ccccc1)NC(=O)c1ccccc1 [CB-50]
[4]
  hemolysis (lytic activity): did not hemolyze erythrocytes

## O=C(N/N=C/c1ccccc1O)c1cc(-c2ccccc2)nc2ccccc12 [CB-53]
[4]
  hemolysis (lytic activity): did not hemolyze erythrocytes

## COc1cccc(C=NNC(=O)c2cc(-c3ccccc3)nc3ccccc23)c1O [CB-58]
[4]
  hemolysis (lytic activity): did not hemolyze erythrocytes

## O=C(Nc1cc(Cl)ccc1O)c1cc2nc(-c3ccccc3)cc(-c3ccccc3)n2n1 [CB-59]
[4]
  hemolysis (lytic activity): did not hemolyze erythrocytes

## O=C(N/N=C/c1c(O)ccc2ccccc12)c1cc([N+](=O)[O-])cc([N+](=O)[O-])c1 [CB-61]
[4]
  hemolysis (lytic activity): did not hemolyze erythrocytes
